X-ray crystallography data for one compound are collected here from paper PMC6399176, “Assembly of a heterodinuclear Mn/Fe cofactor is coupled to tyrosine–valine ether cross-link formation in the R2-like ligand-binding oxidase” (Journal of Biological Inorganic Chemistry, 2019).

This experiment concerns the target T1, R2loxI (R2-like ligand-binding oxidase, R2lox) (Geobacillus kaustophilus, UniProt Q5KW80, A171F).
T1 construct: gene GK2771; full-length, N-terminal hexahistidine tag, pET-46 Ek/LIC, E. coli BL21(DE3), purified metal-free
Put plainly: X-ray crystallography. The note with it: oxidized resting state, Mn/Fe-soaked crystal; ligand co-purified, further up in the tunnel, not at the metals; modelled as C8 acid from partial density, true identity and chain length uncertain.

SMILES strings stand for the structures.

T1 sequence (Q5KW80 entry or part of it A171F): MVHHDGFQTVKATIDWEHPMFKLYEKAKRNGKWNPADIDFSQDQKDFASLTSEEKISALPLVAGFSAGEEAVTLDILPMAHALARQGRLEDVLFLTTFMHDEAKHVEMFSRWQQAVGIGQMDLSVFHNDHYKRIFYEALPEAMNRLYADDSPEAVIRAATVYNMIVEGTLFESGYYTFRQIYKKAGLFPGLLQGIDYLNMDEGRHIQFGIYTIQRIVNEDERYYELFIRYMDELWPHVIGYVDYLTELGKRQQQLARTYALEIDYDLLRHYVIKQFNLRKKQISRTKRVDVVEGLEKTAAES

Take `CCCCCCCC(=O)O` [caprylic (C8) acid]: the X-ray crystallography entry is reported as “could only reasonably be modeled (as caprylic (C8) acid) in the oxidized state”.
